From patent publication US20240336643A1, “BIFUNCTIONAL COMPOUNDS THAT DEGRADE ALK AND USES THEREOF” (DANA-FARBER CANCER INSTITUTE, INC., priority 2021, published 2024)
Like-named read-outs stand apart in the source and are kept apart here. Blank lines part the entries; values can stand above or below the compound they belong to.

Columns and labels:
[1] = target: HiBiT G1202R Variant 1 EML4-ALK (Homo sapiens, UniProt Q9UM73, G1202R); type: cell-based; details: Ba/F3 cells, 0.0003-2 μM, 4 hours; for DC50: read-out: BAF3 Cellular Degradation - HiBiT G1202R Variant 1 EML4-ALK: DC50; for Dmax: BaF3, maximal level of degradation, read-out: BAF3 Cellular Degradation - HiBiT G1202R Variant 1 EML4-ALK: Dmax
Chain of HiBiT G1202R Variant 1 EML4-ALK (Q9UM73 with tags, fused parts or gaps G1202R): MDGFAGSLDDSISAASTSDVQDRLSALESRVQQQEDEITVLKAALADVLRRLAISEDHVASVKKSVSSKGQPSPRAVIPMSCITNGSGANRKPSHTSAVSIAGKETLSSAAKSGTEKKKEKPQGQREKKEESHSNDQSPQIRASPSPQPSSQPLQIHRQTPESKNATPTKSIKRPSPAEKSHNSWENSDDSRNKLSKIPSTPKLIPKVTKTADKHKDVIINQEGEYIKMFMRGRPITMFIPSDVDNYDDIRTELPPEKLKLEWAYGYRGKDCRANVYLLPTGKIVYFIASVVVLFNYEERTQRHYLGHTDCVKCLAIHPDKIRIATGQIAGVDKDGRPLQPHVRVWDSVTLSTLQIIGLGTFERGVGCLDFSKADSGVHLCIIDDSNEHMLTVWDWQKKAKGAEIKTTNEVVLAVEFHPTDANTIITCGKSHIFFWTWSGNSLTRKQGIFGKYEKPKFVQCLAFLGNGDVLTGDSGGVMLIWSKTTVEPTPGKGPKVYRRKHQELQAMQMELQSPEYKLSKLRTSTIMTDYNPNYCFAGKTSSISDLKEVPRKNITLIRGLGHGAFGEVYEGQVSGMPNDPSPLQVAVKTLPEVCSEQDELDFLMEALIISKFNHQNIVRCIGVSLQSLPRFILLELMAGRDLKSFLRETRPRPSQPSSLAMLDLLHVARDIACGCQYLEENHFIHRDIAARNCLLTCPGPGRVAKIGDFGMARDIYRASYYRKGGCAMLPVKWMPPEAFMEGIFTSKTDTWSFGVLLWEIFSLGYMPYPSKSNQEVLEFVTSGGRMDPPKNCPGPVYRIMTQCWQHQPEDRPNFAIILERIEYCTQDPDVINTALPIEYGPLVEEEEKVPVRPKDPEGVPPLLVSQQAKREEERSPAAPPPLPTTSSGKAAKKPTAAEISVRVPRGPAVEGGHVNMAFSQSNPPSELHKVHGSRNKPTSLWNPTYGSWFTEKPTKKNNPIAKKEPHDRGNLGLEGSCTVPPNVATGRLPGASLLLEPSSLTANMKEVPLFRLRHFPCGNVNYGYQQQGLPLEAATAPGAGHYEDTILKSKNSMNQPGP
Chain of HiBiT G1202R Variant 1 EML4-ALK (Q96SW2 whole entry partner): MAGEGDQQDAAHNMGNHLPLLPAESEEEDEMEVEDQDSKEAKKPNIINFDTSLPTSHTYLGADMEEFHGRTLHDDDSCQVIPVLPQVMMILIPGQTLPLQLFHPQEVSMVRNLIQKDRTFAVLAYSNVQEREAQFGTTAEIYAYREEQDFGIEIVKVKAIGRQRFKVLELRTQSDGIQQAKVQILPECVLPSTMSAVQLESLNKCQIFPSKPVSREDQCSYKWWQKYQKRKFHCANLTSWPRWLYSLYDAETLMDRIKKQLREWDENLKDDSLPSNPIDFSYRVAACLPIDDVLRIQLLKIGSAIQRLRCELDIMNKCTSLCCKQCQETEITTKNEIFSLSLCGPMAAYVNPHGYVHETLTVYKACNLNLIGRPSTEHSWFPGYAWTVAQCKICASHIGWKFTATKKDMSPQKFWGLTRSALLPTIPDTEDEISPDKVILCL
Chain of HiBiT G1202R Variant 1 EML4-ALK (Q3U1J4 whole entry partner): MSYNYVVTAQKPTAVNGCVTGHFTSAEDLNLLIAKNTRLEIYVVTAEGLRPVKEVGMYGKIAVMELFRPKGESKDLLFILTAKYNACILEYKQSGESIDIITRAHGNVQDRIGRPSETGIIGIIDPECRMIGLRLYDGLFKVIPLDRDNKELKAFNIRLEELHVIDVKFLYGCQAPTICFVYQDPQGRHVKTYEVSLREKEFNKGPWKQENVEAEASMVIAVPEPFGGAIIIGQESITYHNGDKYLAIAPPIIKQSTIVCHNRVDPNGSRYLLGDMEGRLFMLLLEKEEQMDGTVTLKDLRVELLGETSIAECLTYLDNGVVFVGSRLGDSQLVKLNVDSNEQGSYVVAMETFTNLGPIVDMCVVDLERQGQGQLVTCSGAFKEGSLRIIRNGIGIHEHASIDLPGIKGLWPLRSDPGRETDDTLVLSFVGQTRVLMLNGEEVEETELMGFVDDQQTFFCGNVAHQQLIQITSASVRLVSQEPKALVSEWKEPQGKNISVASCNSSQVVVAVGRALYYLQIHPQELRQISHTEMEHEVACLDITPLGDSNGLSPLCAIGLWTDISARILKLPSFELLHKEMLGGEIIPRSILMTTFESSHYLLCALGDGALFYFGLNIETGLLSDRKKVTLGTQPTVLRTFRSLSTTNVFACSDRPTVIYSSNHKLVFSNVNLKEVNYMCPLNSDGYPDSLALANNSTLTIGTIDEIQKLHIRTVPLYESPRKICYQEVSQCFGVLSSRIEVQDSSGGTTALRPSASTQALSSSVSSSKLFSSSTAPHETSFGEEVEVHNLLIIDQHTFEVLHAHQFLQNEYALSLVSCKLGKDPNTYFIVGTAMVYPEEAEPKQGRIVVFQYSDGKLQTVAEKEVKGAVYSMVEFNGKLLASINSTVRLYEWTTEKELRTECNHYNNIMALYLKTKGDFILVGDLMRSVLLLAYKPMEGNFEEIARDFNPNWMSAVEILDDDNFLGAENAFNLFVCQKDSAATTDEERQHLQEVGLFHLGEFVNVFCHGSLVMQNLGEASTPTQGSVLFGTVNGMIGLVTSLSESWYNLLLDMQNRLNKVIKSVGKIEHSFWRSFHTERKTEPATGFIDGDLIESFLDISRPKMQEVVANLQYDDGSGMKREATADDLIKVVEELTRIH

[2] = target: BAF3 Cells with Variant 3 EML4-ALK^G1202R (Homo sapiens, UniProt Q9UM73, G1202R, cells depend on it); details: read-out: BAF3 Cells with Variant 3 EML4-ALK^G1202R (IC50)
Chain of BAF3 Cells with Variant 3 EML4-ALK^G1202R (Q9UM73 whole entry G1202R): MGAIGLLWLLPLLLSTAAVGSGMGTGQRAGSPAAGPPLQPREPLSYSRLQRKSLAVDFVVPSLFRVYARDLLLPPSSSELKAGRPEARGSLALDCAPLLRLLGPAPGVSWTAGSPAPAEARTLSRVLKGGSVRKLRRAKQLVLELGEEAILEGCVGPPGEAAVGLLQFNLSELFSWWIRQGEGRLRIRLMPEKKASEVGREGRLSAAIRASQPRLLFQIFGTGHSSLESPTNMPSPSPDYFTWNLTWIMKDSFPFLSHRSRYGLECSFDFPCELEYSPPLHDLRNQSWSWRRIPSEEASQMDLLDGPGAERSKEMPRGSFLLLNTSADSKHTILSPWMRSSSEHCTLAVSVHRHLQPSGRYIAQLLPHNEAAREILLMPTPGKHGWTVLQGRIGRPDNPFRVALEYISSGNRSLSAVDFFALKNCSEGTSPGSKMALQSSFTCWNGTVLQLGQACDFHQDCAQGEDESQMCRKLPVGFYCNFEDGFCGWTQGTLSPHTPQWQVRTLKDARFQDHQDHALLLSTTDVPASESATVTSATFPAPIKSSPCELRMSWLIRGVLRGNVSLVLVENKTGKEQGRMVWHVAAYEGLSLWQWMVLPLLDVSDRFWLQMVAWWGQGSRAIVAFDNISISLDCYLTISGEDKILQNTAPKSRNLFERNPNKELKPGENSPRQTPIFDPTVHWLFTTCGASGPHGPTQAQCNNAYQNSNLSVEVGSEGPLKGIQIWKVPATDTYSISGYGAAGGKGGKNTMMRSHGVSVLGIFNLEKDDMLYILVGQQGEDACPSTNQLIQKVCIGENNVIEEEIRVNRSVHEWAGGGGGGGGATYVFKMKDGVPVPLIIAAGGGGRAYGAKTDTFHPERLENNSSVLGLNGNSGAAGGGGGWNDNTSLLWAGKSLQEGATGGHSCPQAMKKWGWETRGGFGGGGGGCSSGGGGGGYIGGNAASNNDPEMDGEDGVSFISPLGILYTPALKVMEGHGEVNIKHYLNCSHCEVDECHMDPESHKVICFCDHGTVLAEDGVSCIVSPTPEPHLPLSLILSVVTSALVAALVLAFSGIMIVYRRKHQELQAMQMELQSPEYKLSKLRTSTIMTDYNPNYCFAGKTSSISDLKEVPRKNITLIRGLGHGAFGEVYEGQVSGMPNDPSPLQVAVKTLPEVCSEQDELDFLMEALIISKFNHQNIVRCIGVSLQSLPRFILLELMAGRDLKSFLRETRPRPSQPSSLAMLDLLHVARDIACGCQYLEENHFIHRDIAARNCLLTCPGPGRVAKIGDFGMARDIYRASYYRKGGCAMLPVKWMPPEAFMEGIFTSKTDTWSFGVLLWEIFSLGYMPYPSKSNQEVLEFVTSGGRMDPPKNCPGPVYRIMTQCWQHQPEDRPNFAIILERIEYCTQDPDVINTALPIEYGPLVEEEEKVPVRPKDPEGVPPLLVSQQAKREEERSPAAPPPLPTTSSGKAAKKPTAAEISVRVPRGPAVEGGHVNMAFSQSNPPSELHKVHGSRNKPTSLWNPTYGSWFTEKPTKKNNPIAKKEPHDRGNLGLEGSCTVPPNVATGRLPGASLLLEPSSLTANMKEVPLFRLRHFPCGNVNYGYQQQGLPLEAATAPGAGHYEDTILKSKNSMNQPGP

[3] = target: BAF3 Cells with Variant 3 EML4-ALK^WT (Homo sapiens, UniProt Q9UM73); details: read-out: BAF3 Cells with Variant 3 EML4-ALK^WT (IC50); 72 hours, CellTiter-Glo
Chain of BAF3 Cells with Variant 3 EML4-ALK^WT (Q9UM73 whole entry, change not shown): as the sequence (Q9UM73 whole entry G1202R) above, with R1202G counted along it

Mouse oral PK study = type: in vivo, male C57BI/6 mice; details: for Vd: C57BI/6, mouse, iv, 2 mg/kg
Method: Standard oral PK studies were conducted using male C57BI/6 mice obtained from BioDuro Shanghai. […] Plasma concentrations of compound 1 reported at each of the 9 time points (5 min, 15 min, 30 min, 1 h, 2 h, 4 h, 6 h, 8 h and 24 h post dosing) are the average values from 3 test animals.

proteins in MOLT4 cells = assay: Quantitative mass spectrometry proteomics, relative protein abundance; type: cell-based; details: 1 μM, 5 hours, cut-offs 2-fold change, p value 0.001
Method: Relative fold-change (FC) abundance of proteins in MOLT4 cells treated with compound 1 (1 μM) for 5 hours was determined using quantitative mass spectrometry proteomics (protocol was published previously: Donovan et al., Cell 183:1714-1731 (2020)). Dotted lines signify a 2-fold change in protein levels and a p value of 0.001. […] FER is a cytoplasmic tyrosine kinase and its kinase function […] for STAT3 phosphorylation in tumor cell transformation and growth, but siRNA knock down of FER leads to decreased phospho-STAT3 and reduced STAT3 activation and inhibition of tumor growth in vivo (Lennartsson et al., J. Biol. Chem. 288:15736-15744 (2013)). STAT3 activation plays a key role in several cancers, including colon cancer (Gargalionis et al., Biomedicines 9:1016 (2021)). Therefore, inhibition of STAT3 signaling through depletion of FER using a targeted protein degrader is useful in the treatment of such cancers.

FER in HCT116 cells = target: T1, FER in HCT116 cells (Homo sapiens, UniProt P16591); assay: Western blotting for FER degradation; type: cell-based; details: various concentrations, 24 hours
T1 construct: endogenous in cells; host or cells: HCT116
T1 sequence (P16591 whole entry): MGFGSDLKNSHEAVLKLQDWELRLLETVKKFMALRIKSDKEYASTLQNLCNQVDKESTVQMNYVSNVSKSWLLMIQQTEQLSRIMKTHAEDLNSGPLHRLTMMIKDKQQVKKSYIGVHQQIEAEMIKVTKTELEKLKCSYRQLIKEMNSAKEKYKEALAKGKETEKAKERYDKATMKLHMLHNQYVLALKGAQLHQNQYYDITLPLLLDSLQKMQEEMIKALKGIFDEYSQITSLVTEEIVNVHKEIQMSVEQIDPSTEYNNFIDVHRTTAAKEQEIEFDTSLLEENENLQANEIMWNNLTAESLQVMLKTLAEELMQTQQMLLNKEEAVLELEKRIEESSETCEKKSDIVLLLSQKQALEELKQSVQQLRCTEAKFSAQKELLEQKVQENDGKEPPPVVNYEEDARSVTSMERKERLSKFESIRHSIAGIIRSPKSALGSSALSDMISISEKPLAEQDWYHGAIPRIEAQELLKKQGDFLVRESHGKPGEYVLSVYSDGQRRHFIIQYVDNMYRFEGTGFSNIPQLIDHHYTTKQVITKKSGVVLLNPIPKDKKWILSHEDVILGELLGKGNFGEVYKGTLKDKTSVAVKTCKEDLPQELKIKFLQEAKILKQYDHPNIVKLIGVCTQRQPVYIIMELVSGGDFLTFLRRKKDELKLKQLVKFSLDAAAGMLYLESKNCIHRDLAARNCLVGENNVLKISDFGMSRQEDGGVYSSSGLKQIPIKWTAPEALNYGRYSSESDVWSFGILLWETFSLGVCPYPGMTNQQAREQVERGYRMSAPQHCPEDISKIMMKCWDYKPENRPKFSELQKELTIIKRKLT
Method: HCT116 cells were treated with compound 1 or a FER kinase inhibitor E260 (Elkis et al., Nat. Commun. 8:940 (2017)) at various concentrations for 24 hours, along with DMSO (not shown) and ethanol as controls (FIG. 2). 18 μg of protein was loaded in each lane and Western blotting was performed for FER, CRBN, and loading control ACTIN.

[4] = male, C57BI/6, 10 mg/kg, PO, single dose, plasma
[5] = male, C57BI/6, IV, single 2 mg/kg, plasma

DC50 [1]: 95 nM
Dmax [1]: 63%
SMILES: CCc1cc2c(cc1N1CC(CN3CCC(c4ccc5c(c4)CN(C4CCC(=O)NC4=O)C5=O)CC3)C1)C(C)(C)c1[nH]c3cc(C#N)ccc3c1C2=O (stereo not drawn) [Compound 23]

DC50 [1]: 41 nM
Dmax [1]: 86%
SMILES: COc1cc(C2CCN(C[C@@H]3CCN(c4ccc5c(c4)C(=O)N(C4CCC(=O)NC4=O)C5=O)C3)CC2)c(C)cc1Nc1ncc(Cl)c(Nc2ccccc2S(=O)(=O)C(C)C)n1 (stereo partly drawn) [Compound 9]

DC50 [1]: 124 nM
SMILES: COc1cc(C2CCN(C[C@H]3CCN(c4ccc5c(c4)C(=O)N(C4CCC(=O)NC4=O)C5=O)C3)CC2)c(C)cc1Nc1ncc(Cl)c(Nc2ccccc2S(=O)(=O)C(C)C)n1 (stereo partly drawn) [Compound 8, 5-[(3R)-3-[(4-{4-[(5-chloro-4-{[2-(propane-2-sulfonyl)phenyl]amino}pyrimidin-2-yl)amino]-5-methoxy-2-methylphenyl}piperidin-1-yl)methyl]pyrrolidin-1-yl]-2-(2,6-dioxopiperidin-3-yl)-2,3-dihydro-1H-isoindole-1,3-dione]

GI50 ([2]; 72 hours, CellTiter-Glo): 357 nM
GI50 [3]: 85 nM
SMILES: Cc1cc(Nc2ncc(Cl)c(Nc3ccccc3S(=O)(=O)C(C)C)n2)c(OC(C)C)cc1C1CCNCC1 [Ceritinib]

DC50 [1]: 71 nM
Dmax [1]: 68%
SMILES: CNC(=O)c1ccccc1Nc1nc(Nc2cc(C)c(C3CCN(CC4CN(c5ccc6c(c5)C(=O)N(C5CCC(=O)NC5=O)C6=O)C4)CC3)cc2OC(C)C)ncc1C(F)(F)F (stereo not drawn) [Compound 18, 2-{[2-({4-[1-({1-[2-(2,6-dioxopiperidin-3-yl)-1,3-dioxo-2,3-dihydro-1H-isoindol-5-yl]azetidin-3-yl}methyl)piperidin-4-yl]-5-methyl-2-(propan-2-yloxy)phenyl}amino)-5-(trifluoromethyl)pyrimidin-4-yl]amino}-N-methylbenzamide]

AUCExtr (Mouse oral PK study; IV, single 2 mg/kg, plasma): 1.65%
F (Mouse oral PK study; PO versus IV): 28.0%
AUCExtr (Mouse oral PK study; PO, single dose, plasma): 5.08%
AUCInf/D (Mouse oral PK study; PO, single dose, plasma): 0.605 hr*kg*nM/nmol
AUC(0-inf) (Mouse oral PK study; [4]): 7.08 µM·h
AUC(0-t) (Mouse oral PK study; [4]): 6.73 µM·h
Cmax (Mouse oral PK study; [4]): 658 nM
MRT inf (Mouse oral PK study; [4]): 8.51 h
Tmax (Mouse oral PK study; [4]): 1.67 h
half-life (Mouse oral PK study; [4]): 5.37 h
AUC(0-inf) (Mouse oral PK study; [5]): 5.05 µM·h
AUC(0-t) (Mouse oral PK study; [5]): 4.97 µM·h
C0 (Mouse oral PK study; [5]): 2340 nM
MRT inf (Mouse oral PK study; [5]): 4.95 h
clearance (Mouse oral PK study; [5]): 7.73 mL/min/kg
half-life (Mouse oral PK study; [5]): 4.41 h
Vd (Mouse oral PK study; male, plasma, IV, single 2 mg/kg, plasma, read-out: Vss): 2.29 L/kg
Vd (Mouse oral PK study; male, plasma, IV, single 2 mg/kg, plasma, read-out: Vz): 2.95 L/kg
Downregulation of FER (Western blot) (FER in HCT116 cells): significantly downregulated FER
SMILES: COc1cc(C2CCN(CC3CN(c4ccc5c(c4)C(=O)N(C4CCC(=O)NC4=O)C5=O)C3)CC2)c(C)cc1Nc1ncc(Cl)c(Nc2ccccc2S(=O)(=O)C(C)C)n1 (stereo not drawn) [Compound 1, 5-{3-[(4-{4-[(5-chloro-4-{[2-(propane-2-sulfonyl)phenyl]amino}pyrimidin-2-yl)amino]-5-methoxy-2-methylphenyl}piperidin-1-yl)methyl]azetidin-1-yl}-2-(2,6-dioxopiperidin-3-yl)-2,3-dihydro-1H-isoindole-1,3-dione]
In vivo metabolic stability, plasma exposure and clearance (in words) (Mouse oral PK study; conclusion from Table 3): good in vivo metabolic stability, plasma exposure, and slow clearance rate
Relative fold-change abundance of proteins (downregulated proteins) (proteins in MOLT4 cells): downregulated PLK4, CAMK1D, FAK2, RSK1, ACK1 and FER

DC50 [1]: 114 nM
Dmax [1]: 55%
SMILES: CNC(=O)c1ccccc1Nc1nc(Nc2cc(C)c(C3CCN(CC4CCN(c5ccc6c(c5)C(=O)N(C5CCC(=O)NC5=O)C6=O)CC4)CC3)cc2OC(C)C)ncc1C(F)(F)F (stereo not drawn) [Compound 19, 2-{[2-({4-[1-({1-[2-(2,6-dioxopiperidin-3-yl)-1,3-dioxo-2,3-dihydro-1H-isoindol-5-yl]piperidin-4-yl}methyl)piperidin-4-yl]-5-methyl-2-(propan-2-yloxy)phenyl}amino)-5-(trifluoromethyl)pyrimidin-4-yl]amino}-N-methylbenzamide]

DC50 [1]: 23 nM
Dmax [1]: 77%
SMILES: CNC(=O)c1ccccc1Nc1nc(Nc2cc(C)c(C3CCN(CC4CCN(c5ccc6c(c5)C(=O)N(C5CCC(=O)NC5=O)C6=O)CC4)CC3)cc2OC)ncc1C(F)(F)F (stereo not drawn) [Compound 17, 2-{[2-({4-[1-({1-[2-(2,6-dioxopiperidin-3-yl)-1,3-dioxo-2,3-dihydro-1H-isoindol-5-yl]piperidin-4-yl}methyl)piperidin-4-yl]-2-methoxy-5-methylphenyl}amino)-5-(trifluoromethyl)pyrimidin-4-yl]amino}-N-methylbenzamide]

GI50 ([2]; baf3 cells with variant 3 eml4-alk^g1202r): 183 nM
SMILES: COc1cc(N2CCC(N3CCN(C)CC3)CC2)ccc1Nc1ncc(Cl)c(Nc2ccccc2P(C)(C)=O)n1 [Brigatinib]

DC50 [1]: 10 nM
Dmax [1]: 76%
SMILES: COc1cc(C2CCN(CCC3CN(c4ccc5c(c4)C(=O)N(C4CCC(=O)NC4=O)C5=O)C3)CC2)c(C)cc1Nc1ncc(Cl)c(Nc2ccccc2S(=O)(=O)C(C)C)n1 (stereo not drawn) [Compound 2]

DC50 [1]: 6 nM
Dmax [1]: 82%
SMILES: CCc1cc2c(cc1C#CCCCN1CCC(c3ccc4c(c3)CN(C3CCC(=O)NC3=O)C4=O)CC1)C(C)(C)c1[nH]c3cc(C#N)ccc3c1C2=O (stereo not drawn) [Compound 22]

DC50 [1]: 79 nM
SMILES: COc1cc(C2CCN(CC3CC4(C3)CN(c3ccc5c(c3)C(=O)N(C3CCC(=O)NC3=O)C5=O)C4)CC2)c(C)cc1Nc1ncc(Cl)c(Nc2ccccc2S(=O)(=O)C(C)C)n1 (stereo not drawn) [Compound 16, 5-(6-((4-(4-((5-chloro-4-((2-(isopropylsulfonyl)phenyl)amino)pyrimidin-2-yl)amino)-5-methoxy-2-methylphenyl)piperidin-1-yl)methyl)-2-azaspiro[3.3]heptan-2-yl)-2-(2,6-dioxopiperidin-3-yl)isoindoline-1,3-dione]

SMILES: COc1cc(CN2CCC(O)(c3ccc4c(c3)CN(C3CCC(=O)NC3=O)C4=O)CC2)c(C)cc1Nc1ncc(Cl)c(Nc2ccccc2S(=O)(=O)C(C)C)n1 (stereo not drawn) [Compound 26, 3-(5-(1-(4-((5-chloro-4-((2-(isopropylsulfonyl)phenyl)amino)pyrimidin-2-yl)amino)-5-methoxy-2-methylbenzyl)-4-hydroxypiperidin-4-yl)-1-oxoisoindolin-2-yl)piperidine-2,6-dione]
DC50 [1]: 147 nM
Dmax [1]: 62%
